Source: patent US20100125087A1, “NEW COMPOUNDS 575” (AstraZeneca AB, priority 2008, published 2010)
Counter-ions that a name gives are not always drawn.

Target: T1, human β-Secretase (Homo sapiens, UniProt P56817)
T1 construct: soluble part of the human β-Secretase (AA 1-AA 460); Fc domain of IgG1 (C); made in house
Assay: TR-FRET assay
Assay type: biochemical
Settings: sBACE-Fc, substrate (Europium)CEVNLDAEFK(Qsy7) 100 nM, pH4.5, unit not in table
Experimental: The β-secretase enzyme used in the TR-FRET is prepared as follows:
The cDNA for the soluble part of the human β-Secretase (AA 1-AA 460) was cloned using the ASP2-Fc10-1-IRES-GFP-neoK mammalian expression vector. The gene was fused to the Fc domain of IgG1 (affinity tag) and stably cloned into HEK 293 cells.
The enzyme (truncated form) was diluted to 6 μg/mL (stock 1.3 mg/mL) and the substrate (Europium)CEVNLDAEFK(Qsy7) to 200 nM (stock 120 μM) in reaction buffer (NaAcetate, chaps, triton x-100, EDTA pH4.5). The robotic systems Biomek FX and Velocity 11 were used for all liquid handling and the enzyme and substrate solutions were kept on ice until they were placed in the robotic system. Enzyme (9 μl) was added to the plate then 1 μl of compound in dimethylsulphoxide was added, mixed and pre-incubated for 10 minutes. Substrate (10 μl) was then added, mixed and the reaction proceeded for 15 minutes at room temperature. The reaction was stopped with the addition of Stop solution (7 μl, NaAcetate, pH 9). The fluorescence of the product was measured on a Victor II plate reader with an excitation wavelength of 340 nm and an emission wavelength of 615 nm. The assay was performed in a Costar 384 well round bottom, low volume, non-binding surface plate (Corning #3676). […] The dimethylsulphoxide control, instead of test compound, defined the 100% activity level and 0% activity was defined by wells lacking enzyme (replaced with reaction buffer).

T1 sequence (P56817 22-460): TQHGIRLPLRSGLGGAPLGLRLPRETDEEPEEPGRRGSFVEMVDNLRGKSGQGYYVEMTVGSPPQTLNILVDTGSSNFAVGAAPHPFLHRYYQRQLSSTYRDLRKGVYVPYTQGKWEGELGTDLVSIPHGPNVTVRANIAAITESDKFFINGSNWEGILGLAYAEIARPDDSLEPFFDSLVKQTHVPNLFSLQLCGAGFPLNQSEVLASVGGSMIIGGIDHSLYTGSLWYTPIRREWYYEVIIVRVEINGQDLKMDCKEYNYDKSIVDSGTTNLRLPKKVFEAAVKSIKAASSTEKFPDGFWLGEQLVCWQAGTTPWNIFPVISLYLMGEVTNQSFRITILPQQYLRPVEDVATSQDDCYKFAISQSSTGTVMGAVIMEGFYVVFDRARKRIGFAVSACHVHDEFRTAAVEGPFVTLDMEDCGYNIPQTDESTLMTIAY

Structure (SMILES) | IC50 [nM]
CC(C)COc1cccc(C2(c3ccncc3)N=C(N)c3ncccc32)c1 (stereo not drawn) [Example 1, 5-(3-Isobutoxyphenyl)-5-(pyridin-4-yl)-5H-pyrrolo[3,4-b]pyridin-7-amine] | 640
CC(C)CCOc1cccc(C2(c3ccncc3)N=C(N)c3ncccc32)c1 (stereo not drawn) [Example 2, 5-(3-(Isopentyloxy)phenyl)-5-(pyridin-4-yl)-5H-pyrrolo[3,4-b]pyridin-7-amine] | 1700
NC1=NC(c2ccncc2)(c2cccc(OCC3CCCC3)c2)c2cccnc21 (stereo not drawn) [Example 3, 5-(3-(Cyclopentylmethoxy)phenyl)-5-(pyridin-4-yl)-5H-pyrrolo[3,4-b]pyridin-7-amine] | 1500
NC1=NC(c2ccncc2)(c2cccc(OCC3CCC3)c2)c2cccnc21 (stereo not drawn) [Example 4, 5-(3-(Cyclobutylmethoxy)phenyl)-5-(pyridin-4-yl)-5H-pyrrolo[3,4-b]pyridin-7-amine] | 2700
NC1=NC(c2ccncc2)(c2cccc(OCC3CC3(F)F)c2)c2cccnc21 (stereo not drawn) [Example 5, 5-(3-((2,2-Difluorocyclopropyl)methoxy)phenyl)-5-(pyridin-4-yl)-5H-pyrrolo[3,4-b]pyridin-7-amine] | 2300
NC1=NC(c2cccc(OCCCF)c2)(c2ccnc(C(F)(F)F)c2)c2cccnc21 (stereo not drawn) [Example 6, 5-(3-(3-Fluoropropoxy)phenyl)-5-(2-(trifluoromethyl)pyridin-4-yl)-5H-pyrrolo[3,4-b]pyridin-7-amine] | 1500
NC1=NC(c2cccc(OCC3CCC3)c2)(c2ccnc(C(F)(F)F)c2)c2cccnc21 (stereo not drawn) [Example 7, 5-(3-(Cyclobutylmethoxy)phenyl)-5-(2-(trifluoromethyl)pyridin-4-yl)-5H-pyrrolo[3,4-b]pyridin-7-amine] | 1200
NC1=NC(c2ccncc2)(c2cccc(OC3CCCC3)c2)c2cccnc21 (stereo not drawn) [Example 8, 5-(3-(Cyclopentyloxy)phenyl)-5-(pyridin-4-yl)-5H-pyrrolo[3,4-b]pyridin-7-amine] | 3000
NC1=NC(c2ccncc2)(c2cccc(OC3CCC3)c2)c2cccnc21 (stereo not drawn) [Example 9, 5-(3-Cyclobutoxyphenyl)-5-(pyridin-4-yl)-5H-pyrrolo[3,4-b]pyridin-7-amine] | 8000
COc1cccc(C2(c3ccncc3)N=C(N)c3ncccc32)c1 (stereo not drawn) [Example 9i, 5-(3-Methoxyphenyl)-5-(pyridin-4-yl)-5H-pyrrolo[3,4-b]pyridin-7-amine] | 26000
NC1=NC(c2ccncc2)(c2cccc(OCCCF)c2)c2cccnc21 (stereo not drawn) [Example 10, 5-(3-(3-Fluoropropoxy)phenyl)-5-(pyridin-4-yl)-5H-pyrrolo[3,4-b]pyridin-7-amine] | 2400
COc1c(C)cc(C2(c3cccc(OCCCF)c3)N=C(N)c3ncccc32)cc1C (stereo not drawn) [Example 11, 5-(3-(3-Fluoropropoxy)phenyl)-5-(4-methoxy-3,5-dimethylphenyl)-5H-pyrrolo[3,4-b]pyridin-7-amine] | 81
COc1cc(C2(c3cccc(OCCCF)c3)N=C(N)c3ncccc32)ccn1 (stereo not drawn) [Example 12, 5-(3-(3-Fluoropropoxy)phenyl)-5-(2-methoxypyridin-4-yl)-5H-pyrrolo[3,4-b]pyridin-7-amine] | 2700
Cc1cc(C2(c3cccc(OCCCF)c3)N=C(N)c3ncccc32)ccn1 (stereo not drawn) [Example 13, 5-(3-(3-Fluoropropoxy)phenyl)-5-(2-methylpyridin-4-yl)-5H-pyrrolo[3,4-b]pyridin-7-amine] | 2700
COc1ccc(C2(c3cccc(OCCCF)c3)N=C(N)c3ncccc32)cc1C(F)(F)F (stereo not drawn) [Example 14, 5-(3-(3-Fluoropropoxy)phenyl)-5-(4-methoxy-3-(trifluoromethyl)phenyl)-5H-pyrrolo[3,4-b]pyridin-7-amine] | 960
Cc1cc(C2(c3cccc(OCC(C)C)c3)N=C(N)c3ncccc32)cc(C)n1 (stereo not drawn) [Example 15, 5-(2,6-Dimethylpyridin-4-yl)-5-(3-isobutoxyphenyl)-5H-pyrrolo[3,4-b]pyridin-7-amine acetate] | 3800
COc1ncc(C2(c3cccc(OCC(C)C)c3)N=C(N)c3ncccc32)cc1C (stereo not drawn) [Example 16, 5-(3-Isobutoxyphenyl)-5-(6-methoxy-5-methylpyridin-3-yl)-5H-pyrrolo[3,4-b]pyridin-7-amine acetate] | 3100
CC(C)COc1cccc(C2(c3ccc(OC(F)F)nc3)N=C(N)c3ncccc32)c1 (stereo not drawn) [Example 17, acetate] | 1300
CC(C)COc1cccc(C2(c3ccc(OC(F)F)cc3)N=C(N)c3ncccc32)c1 (stereo not drawn) [Example 18, 5-(4-(Difluoromethoxy)phenyl)-5-(3-isobutoxyphenyl)-5H-pyrrolo[3,4-b]pyridin-7-amine] | 150
Cc1cc(C2(c3cccc(OCCCF)c3)N=C(N)c3ncccc32)cc(OC(F)F)n1 (stereo not drawn) [Example 19, 5-(2-(Difluoromethoxy)-6-methylpyridin-4-yl)-5-(3-(3-fluoropropoxy)phenyl)-5H-pyrrolo[3,4-b]pyridin-7-amine] | 909
COc1ccc(C2(c3cccc(OCCCF)c3)N=C(N)c3ncccc32)cc1Cl (stereo not drawn) [Example 20, 5-(3-Chloro-4-methoxyphenyl)-5-(3-(3-fluoropropoxy)phenyl)-5H-pyrrolo[3,4-b]pyridin-7-amine] | 779
NC1=NC(c2cccc(OCCC(F)F)c2)(c2ccnc(C(F)(F)F)c2)c2cccnc21 (stereo not drawn) [Example 21, 5-(3-(3,3-Difluoropropoxy)phenyl)-5-(2-(trifluoromethyl)pyridin-4-yl)-5H-pyrrolo[3,4-b]pyridin-7-amine trifluoroacetic acid salt] | 1150
COc1c(C)cc(C2(c3cccc(OCCC(F)F)c3)N=C(N)c3ncccc32)nc1C (stereo not drawn) [Example 22, 5-(3-(3,3-Difluoropropoxy)phenyl)-5-(5-methoxy-4,6-dimethylpyridin-2-yl)-5H-pyrrolo[3,4-b]pyridin-7-amine acetic acid salt] | 337
NC1=NC(c2cccc(OCCCF)c2)(c2ccnc(OC(F)F)c2)c2cccnc21 (stereo not drawn) [Example 23, 5-(2-(Difluoromethoxy)pyridin-4-yl)-5-(3-(3-fluoropropoxy)phenyl)-5H-pyrrolo[3,4-b]pyridin-7-amine 1.67 acetic acid] | 2620
